Results: US20170008888A1 (KYORIN PHARMACEUTICAL CO., LTD., priority 2014, published 2017)
Where two headings read alike, the source gives them in different places.

Columns and labels:
[1] = tested on: primary human keratinocytes; assay: IL-17A-stimulated cytokine response by primary human keratinocytes; assay type: cell-based; details: Keratinocyte, 200 ng/ml IL-17A, 48 h
Protocol: Primary human keratinocytes were obtained from Life Technologies (Grand Island, N.Y.) and maintained in growth supplemented Defined Keratinocyte-SFM Medium (Life Technologies). Cells were seeded at 2.5e4 cells/ml onto collagen-coated plates and incubated at 37° C. in a humidified atmosphere at 5% CO2 until the cells reached confluence. Cells were pre-treated with test compounds (10 μM down by ⅕ in a 4-point serial dilution series) for 1 h at 37° C. in a humidified atmosphere at 5% CO2. DMSO at a final concentration of 0.1% served as the non-inhibited control. Cells were then stimulated with 200 ng/ml human recombinant IL-17A (eBioscience, San Diego, Calif.) for 48 h. Supernatant was collected and analyzed for cytokine concentrations using the Human Inflammatory Magnetic 5-Plex Panel from Life Technologies according to the manufacturer's instructions. Magnetic beads were measured on the Bio-Plex MAGPIX multiplex reader instrument using the accompanying xPONENT 4.2 acquisition software (Bio-Rad Laboratories, Hercules, Calif.). Data were analyzed via the Bio-Plex Manager software v6.1 (Bio-Rad Laboratories).

TAF1 = biological target: T1, TAF1 (Homo sapiens, UniProt P21675); assay: Bromodomain binding assay: TAF1
T1 construct: made in house; host or cells: E. coli host derived from the BL21 strain (T7 phage lysate)
Protocol: T7 phage strains displaying bromodomains were grown in parallel in 24-well blocks in an E. coli host derived from the BL21 strain. E. coli were grown to log-phase and infected with T7 phage from a frozen stock (multiplicity of infection=0.4) and incubated with shaking at 32° C. until lysis (90-150 minutes). The lysates were centrifuged (5,000×g) and filtered (0.2 μm) to remove cell debris. […] The liganded beads were blocked with excess biotin and washed with blocking buffer (SeaBlock (Pierce), 1% BSA, 0.05 Tween 20, 1 mM DTT) to remove unbound ligand and to reduce non-specific phage binding. […] Test compounds (T62 and 46) were prepared as 1000× stocks in 100% DMSO and subsequently diluted 1:10 in monoethylene glycol (MEG) to create stocks at 100× the screening concentration (resulting stock solution is 10% DMSO/90% MEG). The compounds were then diluted directly into the assays such that the final concentration of DMSO and MEG were 0.1% and 0.9%, respectively. All reactions were performed in polystyrene 96-well plates in a final volume of 0.135 ml. […] The bromodomain concentration in the eluates was measured by qPCR. Compounds were assayed for binding activity against a panel of 40 bromodomain-containing proteins.

MV-4-11 cells = assay: MV-4-11 proliferation EC50 assay (CellTiter-Glo); assay type: cell-based; details: Homo sapiens, MV4-11, 48 h, read-out: MV-4-11 proliferation EC50, ave. ± S.D.
Protocol: Human biphenotypic B myelomonocytic leukemia MV-4-11 cells (ATCC, Manassas, Va.) were treated with test compounds at 2e5 cells/ml in IMDM medium containing 10% (v/v) FBS (Life Technologies, Grand Island, N.Y.) and 1×Pen/Strep Amphotericin B (Lonza, Allendale, N.J.). Compounds were tested at 25 μM down by ⅓ in a 9 point serial dilution series. Cells were incubated for 48 h at 37° C. in a humidified atmosphere at 5% CO2. MV-4-11 cell proliferation was then indirectly determined via cellular ATP content using the CellTiter-Glo® Luminescent Cell Viability Assay (Promega, Madison, Wis.) as per the manufacturer's instructions. Briefly, experimental plates were equilibrated at room temperature for 30 minutes. An equal volume of CellTiter-Glo® reagent was added to each well and incubated for 15 minutes at room temperature. Luminescent signal was read using the Wallac 1420 Victor^2 multilabel microplate reader (Perkin Elmer, Waltham, Mass.). EC50 values were determined using GraphPad Prism software v5.04.

[2] = tested on: TLR4 signaling in primary human umbilical vein endothelial cells; assay: Cytokine response to TLR4 agonism (LPS) in primary HUVEC (ELISA); assay type: cell-based
Protocol: In this example, the following commercially available inhibitors were tested:
The results were compared with test compound 61.
Pooled primary human umbilical vein endothelial cells (HUVEC) were obtained from Lonza (Allendale, N.J.) and maintained in either complete EGM-2 defined media (Lonza) or Medium 200 supplemented with Low Serum Growth Supplement (Life Technologies, Grand Island, N.Y.). Cells at low passage (<5) were seeded at 4e5 cells/ml and allowed to adhere overnight at 37° C. in a humidified atmosphere at 5% CO2. Cells were pre-treated with test compounds for 1 h prior to TLR2 or TLR4 stimulation. To test for the effects of TLR2 agonism, the TLR2 agonist peptide Pam3CysK4 (Santa Cruz Biotechnology, Dallas, Tex.) was used at 10 μg/ml. PHC-SKKK (Enzo Life Sciences, Farmingdale, N.Y.) served as the negative control peptide. To test for the effects of TLR4 agonism, LPS from E. coli 0111:B4 (EMD Millipore, Billerica, Mass.) was used at 100 ng/ml. Cells were incubated for 22 hr, after which the supernatant was collected and analyzed for cytokine concentrations by ELISA (Life Technologies). Absorbance at 450 nm was read using the Wallac 1420 Victor^2 multilabel microplate reader (Perkin Elmer, Waltham, Mass.).

[3] = tested on: collagen-induced arthritis mouse model; assay: Collagen-induced arthritis (CIA) mouse model: histopathology of tibiofemoral and tarsal/phalangeal joints; assay type: in vivo, mouse (DBA/1J)
[4] = tested on: collagen-induced arthritis mouse model; assay: Collagen-induced arthritis (CIA) mouse model: in-life disease score, paw thickness; assay type: in vivo, mouse (DBA/1J); details: for change in group average disease score - mean, Day versus Day 21 (start of treatment): 60 mg/kg PO BID from D21
[5] = Group 3 (n=10): 60 mg/kg PO BID D21-D42
[6] = Group 3: 60 mg/kg PO BID D21-D42

T1 sequence (P21675 1519-1628 limits assumed): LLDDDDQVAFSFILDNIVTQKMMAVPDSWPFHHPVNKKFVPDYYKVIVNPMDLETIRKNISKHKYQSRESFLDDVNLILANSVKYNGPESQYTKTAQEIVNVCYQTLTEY

CCOc1cc(C(=O)N2CC[C@@H](N(C)C)C2)ccc1Nc1cc2c(cn1)N(C)C(=O)c1ccccc1N2C [Compound 115]
EC50 ([1]; read-out: Inhibition EC50 (μM), GM-CSF): 2.18 µM
EC50 ([1]; read-out: Inhibition EC50 (μM), IL-1β): 0.5 µM
EC50 ([1]; read-out: Inhibition EC50 (μM), IL-6): 0.35 µM
EC50 ([1]; read-out: Inhibition EC50 (μM), IL-8): 0.46 µM
EC50 ([1]; read-out: Inhibition EC50 (μM), TNF-α): 1 µM

CCOc1cc(C(=O)N[C@H]2CC[C@H](O)CC2)ccc1Nc1cc2c(cn1)N(C)C(=O)c1ccccc1N2C [Compound T62]
Kd (TAF1; read-out: Kd (nM) TAF1): 12000 nM
Kd (TAF1; read-out: Kd for binding to TAF1): > 20000 nM

CCOc1cc(C(=O)N2CCC(N3CCN(C)CC3)CC2)ccc1Nc1cc2c(cn1)N(C)C(=O)c1ccccc1N2C [Compound 61]
EC50 (MV-4-11 cells): 700 ± 50 nM
G-CSF ([2]; 5 μM inhibitor, +100 ng/ml LPS): 14 ± 5 pg/mL
IL-6 ([2]; 5 μM inhibitor, +100 ng/ml LPS): 113 ± 14 pg/mL
IL-8 ([2]; 5 μM inhibitor, +100 ng/ml LPS, 22 hr): 1105 ± 25 pg/mL
G-CSF ([2]; 5 μM inhibitor, No Stimulation): 0 ± 25 pg/mL
IL-6 ([2]; 5 μM inhibitor, No Stimulation): 7 ± 1 pg/mL
G-CSF response to TLR4 agonism, in words ([2]; summary of Table 23): reduced the G-CSF response
IL-6 response, in words ([2]; summary of Table 24): reduced

CCOc1cc(C(=O)N2CCC(N3CCCC3)CC2)ccc1Nc1cc2c(cn1)N(C)C(=O)c1ccccc1N2C [Compound 46, 3-(2-Ethoxy-4-(4-(pyrrolidin-1-yl)piperidine-1-carbonyl)phenylamino)-5,11-dimethyl-5H-benzo[e]pyrido[3,4-b][1,4]diazepin-10(11H)-one]
histopathology of hind-limb joints (knee, paw/tarsal), in words ([3]; Day 42, H&E): nearly twice as effective as Tofacitinib at protecting the tarsal joints
Animals with normal tarsal joints (% of total n in group) [3, 5]: 70%
Number of animals with normal tarsal joints [3, 5]: 7
Tibiofemoral joint score: cartilage erosion/ulceration [3, 6]: 12.5
Tibiofemoral joint score: inflammation [3, 6]: 15.0
Tibiofemoral joint score: periosteal proliferation/erosion [3, 6]: 3.8
Tibiofemoral joint score: synovial hyperplasia [3, 6]: 3.0
change in group average disease score - mean, Day versus Day 21 (start of treatment) ([4]; Day 21): 0.0
change in group average disease score - mean, Day versus Day 21 (start of treatment) ([4]; Day 24): 0.4
change in group average disease score - mean, Day versus Day 21 (start of treatment) ([4]; Day 26): 1.3
change in group average disease score - mean, Day versus Day 21 (start of treatment) ([4]; Day 28): 2.0
change in group average disease score - mean, Day versus Day 21 (start of treatment) ([4]; Day 31): 2.1
change in group average disease score - mean, Day versus Day 21 (start of treatment) ([4]; Day 33): 2.7
change in group average disease score - mean, Day versus Day 21 (start of treatment) ([4]; Day 35): 2.4
change in group average disease score - mean, Day versus Day 21 (start of treatment) ([4]; Day 37): 2.7
change in group average disease score - mean, Day versus Day 21 (start of treatment) ([4]; Day 39): 2.8
percent reduction in overall disease and total paw scores ([4]; treatment Day 21-42, Tofacitinib 15 mg/kg BID PO, doses in Table 28): about 55%
